The text below walks through data of ChEMBL document CHEMBL3044911, “Effect of distribution and concentration of topically applied neonicotinoid insecticides in buffalograss, Buchloe dactyloides, leaf tissues on the differential mortality of Blissus occiduus under field conditions” (Pest Manag Sci, 2013).

Activity calls are given as the source filed them. The calls are words filed in the database; no cut-off is given here.

Series [1] has as its system Lygaeidae. Briefly: Insecticidal activity against first generation Blissus occiduus in buffalograss under field condition assessed as reduction in number at 19.1 kg/ha measured 8 days after treatment. Format: functional, organism-based.
In series [2] the test system is Lygaeidae. Briefly: Insecticidal activity against first generation Blissus occiduus in buffalograss under field condition assessed as reduction in number at 19.1 kg/ha measured 106 days after treatment. Format: functional, organism-based.
Series [3] concerns Lygaeidae. Briefly: Insecticidal activity against second generation Blissus occiduus in buffalograss under field condition assessed as reduction in number at 19.1 kg/ha measured 7 days after treatment. It is filed as functional, organism-based.
Series [4] relates to Lygaeidae. Briefly: Insecticidal activity against second generation Blissus occiduus in buffalograss under field condition assessed as reduction in number at 19.1 kg/ha measured 28 days after treatment. It is filed as functional, organism-based.
For series [5], the system named is Urochloa mutica. Description: Drug level in […] (buffalo grass) measured per gram of fresh weight at 9.6 kg/ha measured 3 days after treatment. The note with it: in vivo, 72 h. Format: ADME, organism-based.
Series [6] relates to Lygaeidae. Briefly: Insecticidal activity against first generation Blissus occiduus in buffalograss under field condition assessed as reduction in number at 19.1 kg/ha measured 3 days after treatment. Format: functional, organism-based.
Series [7] relates to Urochloa mutica. Briefly: Drug level in […] (buffalo grass) measured per gram of fresh weight at 9.6 kg/ha measured 7 days after treatment. The note with it: in vivo, other, 168 h. It is filed as ADME, organism-based.
Series [8] concerns Lygaeidae. Description: Insecticidal activity against second generation Blissus occiduus in buffalograss under field condition assessed as reduction in number at 19.1 kg/ha measured 55 days after treatment. Format: functional, organism-based.
For series [9], the system named is Lygaeidae. Description: Insecticidal activity against second generation Blissus occiduus in buffalograss under field condition assessed as reduction in number at 19.1 kg/ha measured 3 days after treatment. It is filed as functional, organism-based.
Series [10] concerns Urochloa mutica. Description: Drug level in […] (buffalo grass) measured per gram of fresh weight at 9.6 kg/ha measured 14 days after treatment. The note with it: in vivo, 336 h. Format: ADME, organism-based.
Series [11] relates to Urochloa mutica. Description: Drug level in […] (buffalo grass) measured per gram of fresh weight at 89.7 kg/ha measured 3 days after treatment. Format: ADME, organism-based. The note with it: in vivo, 72 h.
In series [12] the test system is Urochloa mutica. Briefly: Drug level in […] (buffalo grass) measured per gram of fresh weight at 89.7 kg/ha measured 28 days after treatment. It is filed as ADME, organism-based. The note with it: in vivo, 672 h.
The subject of series [13] is Urochloa mutica. Briefly: Drug level in […] (buffalo grass) measured per gram of fresh weight at 89.7 kg/ha measured 7 days after treatment. Format: ADME, organism-based. Particulars: in vivo, 168 h.
The subject of series [14] is Urochloa mutica. Description: Drug level in […] (buffalo grass) measured per gram of fresh weight at 89.7 kg/ha measured 14 days after treatment. Format: ADME, organism-based. Particulars: in vivo, 336 h.
Series [15] relates to Lygaeidae. Description: Insecticidal activity against second generation Blissus occiduus in buffalograss under field condition assessed as reduction in number at 9.6 kg/ha measured 3 days after treatment. It is filed as functional, organism-based.
Series [16] concerns Lygaeidae. Briefly: Insecticidal activity against second generation Blissus occiduus in buffalograss under field condition assessed as reduction in number at 9.6 kg/ha measured 28 days after treatment. Format: functional, organism-based.
In series [17] the test system is Lygaeidae. Briefly: Insecticidal activity against second generation Blissus occiduus in buffalograss under field condition assessed as reduction in number at 9.6 kg/ha measured 7 days after treatment. It is filed as functional, organism-based.
In series [18] the test system is Lygaeidae. Briefly: Insecticidal activity against first generation Blissus occiduus in buffalograss under field condition assessed as reduction in number at 9.6 kg/ha measured 106 days after treatment. It is filed as functional, organism-based.
The subject of series [19] is Lygaeidae. Briefly: Insecticidal activity against first generation Blissus occiduus in buffalograss under field condition assessed as reduction in number at 9.6 kg/ha measured 8 days after treatment. It is filed as functional, organism-based.
For series [20], the system named is Lygaeidae. Briefly: Insecticidal activity against first generation Blissus occiduus in buffalograss under field condition assessed as reduction in number at 9.6 kg/ha measured 3 days after treatment. Format: functional, organism-based.
Series [21] relates to Lygaeidae. Briefly: Insecticidal activity against second generation Blissus occiduus in buffalograss under field condition assessed as reduction in number at 9.6 kg/ha measured 55 days after treatment. Format: functional, organism-based.
In series [22] the test system is Lygaeidae. Description: Insecticidal activity against first generation Blissus occiduus in buffalograss under field condition assessed as reduction in number at 89.7 kg/ha measured 106 days after treatment. Format: functional, organism-based.
Series [23] relates to Lygaeidae. Briefly: Insecticidal activity against first generation Blissus occiduus in buffalograss under field condition assessed as reduction in number at 89.7 kg/ha measured 3 days after treatment. It is filed as functional, organism-based.
For series [24], the system named is Urochloa mutica. Briefly: Drug level in […] (buffalo grass) measured per gram of fresh weight at 19.1 kg/ha measured 14 days after treatment. Particulars: in vivo, 336 h. It is filed as ADME, organism-based.
The subject of series [25] is Lygaeidae. Briefly: Insecticidal activity against second generation Blissus occiduus in buffalograss under field condition assessed as reduction in number at 89.7 kg/ha measured 7 days after treatment. It is filed as functional, organism-based.
Series [26] deals with Urochloa mutica. Briefly: Drug level in […] (buffalo grass) measured per gram of fresh weight at 19.1 kg/ha measured 28 days after treatment. Format: ADME, organism-based. The note with it: in vivo, 672 h.
Series [27] relates to Lygaeidae. Description: Insecticidal activity against second generation Blissus occiduus in buffalograss under field condition assessed as reduction in number at 89.7 kg/ha measured 55 days after treatment. It is filed as functional, organism-based.
Series [28] concerns Lygaeidae. Briefly: Insecticidal activity against second generation Blissus occiduus in buffalograss under field condition assessed as reduction in number at 89.7 kg/ha measured 28 days after treatment. Format: functional, organism-based.
Series [29] concerns Urochloa mutica. Briefly: Drug level in […] (buffalo grass) measured per gram of fresh weight at 19.1 kg/ha measured 3 days after treatment. It is filed as ADME, organism-based. The note with it: in vivo, 72 h.
Series [30] deals with Urochloa mutica. Description: Drug level in […] (buffalo grass) measured per gram of fresh weight at 19.1 kg/ha measured 7 days after treatment. The note with it: in vivo, 168 h. Format: ADME, organism-based.
Series [31] relates to Lygaeidae. Briefly: Insecticidal activity against second generation Blissus occiduus in buffalograss under field condition assessed as reduction in number at 89.7 kg/ha measured 3 days after treatment. Format: functional, organism-based.
Series [32] has as its system Lygaeidae. Briefly: Insecticidal activity against first generation Blissus occiduus in buffalograss under field condition assessed as reduction in number at 89.7 kg/ha measured 8 days after treatment. It is filed as functional, organism-based.

In the case of `CN1COCN(Cc2cnc(Cl)s2)/C1=N\[N+](=O)[O-]` [THIAMETHOXAM], the outcome in the series with Lygaeidae [1], with Lygaeidae [3], with Lygaeidae [4], in the series with Lygaeidae [6] and in the series on Lygaeidae [8] was Active. In addition, the result in the series with Lygaeidae [2] and with Lygaeidae [9] was inactive. Besides, the drug content in the series on Urochloa mutica [5] is 6.2 µg/g; with Urochloa mutica [7] it was 0.6 µg/g; in the series with Urochloa mutica [10] it was 0.16 µg/g.

With `O=[N+]([O-])NC1=NCCN1Cc1ccc(Cl)nc1` [IMIDACLOPRID], the drug content in the series with Urochloa mutica [11] was 14.2 µg/g; with Urochloa mutica [12] it was 0.2 µg/g; in the series on Urochloa mutica [13], 3.25 µg/g; in the series on Urochloa mutica [14] it was 0.77 µg/g.

For the compound `O=[N+]([O-])/N=C1\NCCN1Cc1ccc(Cl)nc1`, the outcome in the series on Lygaeidae [15], with Lygaeidae [16] and in the series on Lygaeidae [18] was inactive. For the same compound, the result with Lygaeidae [17], with Lygaeidae [19], with Lygaeidae [20] and in the series on Lygaeidae [21] was Active.

In the case of `CN/C(=N\[N+](=O)[O-])NCc1cnc(Cl)s1` [CLOTHIANIDINE], the result in the series on Lygaeidae [22], in the series on Lygaeidae [23], with Lygaeidae [25], with Lygaeidae [27], in the series with Lygaeidae [28] and in the series on Lygaeidae [31] was Active. Moreover, the result in the series with Lygaeidae [32] was Active. The drug content in the series on Urochloa mutica [24] turned out to be 0.66 µg/g; with Urochloa mutica [26] it was 0.19 µg/g; in the series with Urochloa mutica [29] it was 6.48 µg/g. The compound also displayed a Drug uptake in the series with Urochloa mutica [30] of 1.56 µg/g.
